Values quoted from earlier work as cited in patent US5654277A, “Peptides having thrombospondin-like activity and their therapeutic use” (W. R. Grace & Co.-Conn., priority 1995, dated 1997).

Tested on: B16-F10 murine melanoma cells
Conditions: C57BL/6 mice

Substance | inhibition of lung colony formation / metastasis
GRGDS | dramatically inhibited the formation of lung colonies
YIGSR | dramatically inhibited B16-F10 melanoma cell metastasis
